The source made the active and inactive calls. No cut-off for these calls is given here.
Legend:
[1] = tested on: SW480; experiment: Cell cycle arrest in human SW480 cells assessed as accumulation at S phase at 1.4 uM incubated for 24 hrs by RNaseA/propidium iodide staining based flow cytometry (reference value: 16.7 %); assay type: functional
[2] = tested on: SW480; experiment: Cell cycle arrest in human SW480 cells assessed as accumulation at G2/M phase at 0.7 uM incubated for 24 hrs by RNaseA/propidium iodide staining based flow cytometry (reference value: 24.74 %); assay type: functional
[3] = tested on: HCT-116; experiment: Induction of apoptosis in human HCT-116 cells assessed as early apoptotic cells at 0.075 uM incubated for 48 hrs by Annexin V-FITC/PI staining based flow cytometry analysis (Rvb= 2.51%); assay type: functional
[4] = tested on: HCT-116; experiment: Induction of apoptosis in human HCT-116 cells assessed as upregulation of cleaved caspase-8 expression at 0.3 uM measured at 12 to 48 hrs by immunoblotting assay; assay type: functional, cell-based; conditions: time 12-48 hrs, TDE = time-dependent effect
[5] = tested on: SW480; experiment: Cell cycle arrest in human SW480 cells assessed as accumulation at G0/G1 phase at 0.35 uM incubated for 24 hrs by RNaseA/propidium iodide staining based flow cytometry (reference value: 54.49 %); assay type: functional
[6] = tested on: HCT-116; experiment: Inhibition of cell migration in human HCT-116 cells at 0.075 to 0.3 uM incubated for 24 hrs by wound-healing assay; assay type: functional, cell-based; conditions: dose 0.075-0.3 µM, DDE = dose-dependent effect
[7] = tested on: SW480; experiment: Induction of apoptosis in human SW480 cells assessed as early apoptotic cells at 0.35 uM incubated for 48 hrs by Annexin V-FITC/PI staining based flow cytometry analysis (Rvb= 2.07%); assay type: functional
[8] = tested on: SW480; experiment: Inhibition of colony formation in human SW480 cells at 0.35 to 1.4 uM incubated for 72 hrs by crystal violet staining based assay; assay type: functional, cell-based; conditions: dose 0.35-1.4 µM, DDE = dose-dependent effect
[9] = tested on: SW480; experiment: Inhibition of cell migration in human SW480 cells at 0.35 to 1.4 uM incubated for 24 hrs by wound-healing assay; assay type: functional, cell-based; conditions: dose 0.35-1.4 µM, DDE = dose-dependent effect
[10] = tested on: HCT-116; experiment: Anti-migratory activity against human HCT-116 cells assessed as downregulation of Snail protein expression at 0.075 to 0.3 uM incubated for 24 hrs by immunoblotting assay; assay type: functional, cell-based; conditions: dose 0.075-0.3 µM
[11] = tested on: SW480; experiment: Induction of apoptosis in human SW480 cells assessed as early apoptotic cells at 1.4 uM incubated for 48 hrs by Annexin V-FITC/PI staining based flow cytometry analysis (Rvb= 2.07%); assay type: functional
[12] = tested on: SW480; experiment: Induction of apoptosis in human SW480 cells assessed as necrotic cells at 0.35 uM incubated for 48 hrs by Annexin V-FITC/PI staining based flow cytometry analysis (Rvb= 0.07%); assay type: functional
[13] = tested on: HCT-116; experiment: Antitumor activity against human HCT-116 cells xenografted Balb/c mouse assessed as increase in NDRG1 protein expression at 1 mg/kg,ip administrated for 18 days by 3 times per week by immunoblotting assay; assay type: functional, organism-based; conditions: time 18.0 day
[14] = tested on: HCT-116; experiment: Induction of apoptosis in human HCT-116 cells assessed as early apoptotic cells at 0.15 uM incubated for 48 hrs by Annexin V-FITC/PI staining based flow cytometry analysis (Rvb= 2.51%); assay type: functional
[15] = tested on: SW480; experiment: Cell cycle arrest in human SW480 cells assessed as accumulation at G0/G1 phase at 1.4 uM incubated upto 48 hrs by RNaseA/propidium iodide staining based flow cytometry; assay type: functional
[16] = tested on: SW480; experiment: Induction of apoptosis in human SW480 cells assessed as viable cells at 0.7 uM incubated for 48 hrs by Annexin V-FITC/PI staining based flow cytometry analysis (Rvb= 92.6%); assay type: functional; conditions: read-out: Activity
[17] = tested on: HCT-116; experiment: Antitumor activity against human HCT-116 cells xenografted Balb/c mouse assessed as increase in NDRG1 protein expression at 3 mg/kg,ip administrated for 18 days by 3 times per week by immunoblotting assay; assay type: functional, organism-based; conditions: time 18.0 day
[18] = tested on: SW480; experiment: Cell cycle arrest in human SW480 cells assessed as downregulation of cyclin-D1 protein expression at 0.35 to 1.4 uM incubated for 24 hrs by immunoblotting assay; assay type: functional, cell-based; conditions: dose 0.35-1.4 µM
[19] = tested on: HCT-116; experiment: Anti-migratory activity against human HCT-116 cells assessed as upregulation of E-cadherin gene expression at 0.075 to 0.3 uM incubated for 24 hrs by RT-PCR assay; assay type: functional, cell-based; conditions: dose 0.075-0.3 µM
[20] = tested on: SW480; experiment: Cell cycle arrest in human SW480 cells assessed as downregulation of CDK4 protein expression at 0.35 to 1.4 uM incubated for 24 hrs by immunoblotting assay; assay type: functional, cell-based; conditions: dose 0.35-1.4 µM
[21] = tested on: HCT-116; experiment: Anti-migratory activity against highly liver metastatic human HCT-116 cells assessed as reduction in migration to 0.075 to 0.3 uM incubated for 24 hrs by wound healing assay; assay type: functional, cell-based; conditions: dose 0.075-0.3 µM, DDE = dose-dependent effect
[22] = tested on: HCT-116; experiment: Cell cycle arrest in human HCT-116 cells assessed as accumulation at Sub-G1 phase at 0.15 uM incubated for 24 hrs by RNaseA/propidium iodide staining based flow cytometry (reference value: 3.66 %); assay type: functional
[23] = tested on: SW480; experiment: Cell cycle arrest in human SW480 cells assessed as downregulation of CDK6 protein expression at 0.35 to 1.4 uM incubated for 24 hrs by immunoblotting assay; assay type: functional, cell-based; conditions: dose 0.35-1.4 µM
[24] = tested on: HCT-116; experiment: Cell cycle arrest in human HCT-116 cells assessed as accumulation at S phase at 0.15 uM incubated for 24 hrs by RNaseA/propidium iodide staining based flow cytometry (reference value: 19.94 %); assay type: functional
[25] = tested on: HCT-116; experiment: Cell cycle arrest in human HCT-116 cells assessed as accumulation at G0/G1 phase at 0.15 uM incubated for 24 hrs by RNaseA/propidium iodide staining based flow cytometry (reference value: 48.44 %); assay type: functional
[26] = tested on: SW480; experiment: Cell cycle arrest in human SW480 cells assessed as accumulation at Sub-G1 phase at 0.35 uM incubated for 24 hrs by RNaseA/propidium iodide staining based flow cytometry (reference value: 3.2 %); assay type: functional
[27] = tested on: SW480; experiment: Anti-migratory activity against human SW480 cells assessed as downregulation of Snail gene expression at 0.35 to 1.4 uM incubated for 24 hrs by RT-PCR assay; assay type: functional, cell-based; conditions: dose 0.35-1.4 µM
[28] = Toxicity in Balb/c mouse xenografted with human HCT-116 cells assessed as body weight change at 3 mg/kg,ip administrated for 18 days by 3 times per week; assay type: organism-based; conditions: in vivo, 432 h, time 18 day
[29] = tested on: SW480; experiment: Induction of apoptosis in human SW480 cells assessed as late apoptotic cells at 0.35 uM incubated for 48 hrs by Annexin V-FITC/PI staining based flow cytometry analysis (Rvb= 5.26%); assay type: functional
[30] = tested on: HCT-116; experiment: Antimigratory activity against highly liver metastatic human HCT-116 cells assessed as upregulation of NDRG1 gene expression at 0.075 to 0.3 uM incubated for 24 hrs by RT-PCR method; assay type: functional, cell-based; conditions: dose 0.075-0.3 µM
[31] = tested on: SW480; experiment: Induction of apoptosis in human SW480 cells assessed as late apoptotic cells at 0.7 uM incubated for 48 hrs by Annexin V-FITC/PI staining based flow cytometry analysis (Rvb= 5.26%); assay type: functional
[32] = tested on: SW480; experiment: Antitumor activity against human SW480 cells assessed as upregulation of NDRG1 gene expression at 0.35 to 1.4 uM incubated for 24 hrs by RT-PCR method; assay type: functional, cell-based; conditions: dose 0.35-1.4 µM, DDE = dose-dependent effect
[33] = tested on: HCT-116; experiment: Inhibition of colony formation in human HCT-116 cells at 0.075 to 0.3 uM incubated for 72 hrs by crystal violet staining based assay; assay type: functional, cell-based; conditions: dose 0.075-0.3 µM, DDE = dose-dependent effect

## C[C@@H]1\C=C/C=C/C=C\C=C\C=C\C(=O)C2=C(O)C(=O)C[C@@]2(C)/C=C/C=C\C=C/C(=O)NC1
[1]
  Activity: 11.23%
[2]
  Activity: 17.02%
[3]
  Activity: 8.29%
[4]
  Activity: Tde
[5]
  Activity: 54.89%
[6]
  inhibition: Dde
[7]
  Activity: 2.62%
[8]
  inhibition: Dde
[9]
  inhibition: Dde
[10]
  Activity: Active
[11]
  Activity: 24.26%
[12]
  Activity: 0.06%
[13]
  Activity: Active
[14]
  Activity: 15.66%
[15]
  Activity: Active
[16]
  viability at 0.7 µM: 69.8%
[17]
  Activity: Active
[18]
  Activity: Active
[19]
  Activity: Active
[20]
  Activity: Active
[21]
  Activity: Dde
[22]
  Activity: 5.1%
[23]
  Activity: Active
[24]
  Activity: 11.41%
[25]
  Activity: 55.55%
[26]
  Activity: 5.1%
[27]
  Activity: Active
[28]
  Activity: Non-Toxic
[29]
  Activity: 4.36%
[30]
  Activity: Active
[31]
  Activity: 17.78%
[32]
  Activity: Dde
[33]
  inhibition: Dde

— ChEMBL document CHEMBL5215006, “Antitumor Activity of Piceamycin by Upregulation of N-Myc Downstream-Regulated Gene 1 in Human Colorectal Cancer Cells” (J Nat Prod, 2022)
